The values that follow come from patent US8299079B2, “Preparations and methods for ameliorating or reducing presbyopia” (priority 2009, dated 2012).

Where “and” joins values, the source holds several entries; their conditions need not be identical. Identical values can stand only once.

Test [1] deals with pupil diameter of patients suffering from presbyopia. Kind of test: Preliminary evaluation: pupil diameter after pilocarpine alone or with brimonidine. The format is in vivo, human. As for the experimental part: (§1) The effect of pilocarpine alone or in combination with brimonidine on near visual acuity (VA) for patients suffering from presbyopia was evaluated. Initially, 10 patients were selected for preliminary evaluation. Each patient was administered with one drop of a formulation containing 0.25%, 0.5%, or 1.0% pilocarpine with or without one drop of a formulation containing 0.2% brimonidine. Thus, the following six dosages were initially tested: • 1. 0.25% pilocarpine, • 2. 0.5% pilocarpine, • 3. 1.0% pilocarpine, • 4. 0.25% pilocarpine and 0.2% brimonidine, • 5. 0.5% pilocarpine and 0.2% brimonidine, and • 6. 1.0% pilocarpine and 0.2% brimonidine.

For test [2], the system named is near visual acuity (VA) for patients suffering from presbyopia. Kind of test: Preliminary evaluation: near visual acuity after pilocarpine alone or with brimonidine. In kind it is in vivo, human. As for the experimental part: as §1

Turning to `Brc1c(NC2=NCCN2)ccc2nccnc12` [brimonidine], the “effect on the pupil (potentiation of pilocarpine)” value in test [1] (brimonidine combined with pilocarpine) was “potentiates the effect of pilocarpine on the pupil”.
Turning to `CC[C@@H]1C(=O)OC[C@@H]1Cc1cncn1C` [Pilo Alone, pilocarpine], the “duration of effect on visual acuity (wear out)” value in test [2] (1, 2, 4 hrs after administration) is on record as “appears to wear out fairly quickly”. Besides, the “nVA” value was 3 J and 5 J and 6 J in test [2] (Pilo alone 0.25%, 2 hrs); 3 J and 6 J and 5 J in test [2] (Pilo alone 0.5%, 1 hr); 5 J and 3 J in test [2] (Pilo alone 0.5%, 2 hrs); 5 J and 3 J in test [2] (Pilo alone 0.5%, 4 hrs). The Pupil in test [1] (Pilo alone 0.25%, 1 hr) is 3 and 3.5 and 2.5 and 3.3; in test [1] (Pilo alone 0.25%, 2 hrs) it was 4 and 3.5 and 3; in test [1] (Pilo alone 0.25%, 4 hrs), 4; in test [1] (Pilo alone 0.5%, 1 hr), 2.5 and 3.8 and 3; in test [1] (Pilo alone 0.5%, 2 hrs), 3 and 4 and 2.5 and 3.3; in test [1] (Pilo alone 0.5%, 4 hrs), 3.3 and 4 and 3 and 4.2. In addition, the Pupil is 2.5 and 1.5 and 3 in test [1] (Pilo alone 1%, 1 hr); 3 and 1.5 and 2.5 in test [1] (Pilo alone 1%, 2 hrs); 4 and 2.5 and 3 in test [1] (Pilo alone 1%, 4 hrs).
